Reference: patent US11208399B2, “NLRP3 inflammasome inhibitors” (Novartis AG, priority 2019, dated 2021)
pIC50: −log10 of the molar value. Counter-ions that a name gives are not always drawn.

How the values were obtained:
[1] = system: NLRP3 inflammasome; experiment: IL-1β secretion assay in PMA-differentiated THP-1 cells, nigericin-activated (HTRF); type: cell-based; details: Homo sapiens, 15 μM nigericin, 3 hours, read-out: IL-1β IC50
Procedure: 10 μL supernatant was removed, and IL-1p levels were monitored using an HTRF assay (CisBio, #621L1PEC) according to manufacturers' instructions. Viability and pyroptosis was monitored with the addition of PrestoBlue cell viability reagent (Life Technologies, #A13261) directly to the cell culture plate.
(§1) IC50 values were calculated from the plot of percentage of inhibition versus the inhibitor concentration by a logistics fit according to: y=A2+(A1−A2)/(1+(x/IC50)^p) where y is the %-inhibition at the inhibitor concentration, x. A1 is the lowest inhibition value, i.e. 0%, and A2 the maximum inhibition value, i.e. 100%. The exponent, p, is the Hill coefficient. The curve fitting was conducted with an internally developed software suite.
NLRP3-dependent IL-1β secretion was stimulated in PMA-differentiated THP-1 cells by the addition of nigericin, and cytokines were measured in the […] after 3 hours. As discussed above, activation of the NLRP3 inflammasome requires both an NF-kB-dependent priming step and the addition of a NLRP3 activator.

[2] = system: NF-kB-dependent TNF-α secretion; experiment: TNF-α secretion assay in THP-1 cells (counter screen, HTRF); type: cell-based; details: Homo sapiens, Pam3CSK4-stimulated, 3 hours
Procedure: Monocytic THP-1 cells were maintained according to providers' instructions in RPMI media as described above. […] Experimental compounds were prepared and added as described above. TNF-α secretion was triggered by the addition of either 1 μg/mL LPS (Sigma, #L4391) or 100 ng/mL Pam3CSK4 (Invivogen, #tlrl-pms) depending on the experiment, and cells were incubated for 3 hours. 10 μL supernatant was removed, and TNF-α levels were monitored using an HTRF assay (CisBio, #62TNFPEC) according to manufacturers' instructions. Viability was monitored as described above.
as §1, with “suite. […]” for “suite.”

| Structure (SMILES) | pIC50 [1] | pIC50 [2] |
| --- | --- | --- |
| Cc1cc(C(F)(F)F)cc(O)c1-c1cc(C(F)(F)F)c(NCCO)nn1 [Ex 26, 2-(6-((2-Hydroxyethyl)amino)-5-(trifluoromethyl)pyridazin-3-yl)-3-methyl-5-(trifluoromethyl)phenol] | 6.78 | < 4.00 |
| Cc1cc(C)c(-c2ccc(NCCc3ccc(S(N)(=O)=O)cc3)nn2)c(O)c1 [Ex 103, 4-(2-((6-(2-Hydroxy-4,6-dimethylphenyl)pyridazin-3-yl)amino)ethyl)benzenesulfonamide] | 6.87 | 4.80 |
| Cc1cc(C(F)(F)F)cc(O)c1-c1ccc(NC[C@@H]2CCCCN2)nn1 [Ex 21, (S)-3-Methyl-2-(6-((piperidin-2-ylmethyl)amino)pyridazin-3-yl)-5-(trifluoromethyl)phenol] | 7.32 | < 4.00 |
| CCN1CCC[C@H]1CNc1ccc(-c2c(C)cc(C(F)(F)F)cc2O)nn1 [Ex 8, (S)-2-(6-(((1-Ethylpyrrolidin-2-yl)methyl)amino)pyridazin-3-yl)-3-methyl-5-(trifluoromethyl)phenol] | 7.62 | < 4.00 |
| Cc1cc(C(F)(F)F)cc(O)c1-c1ccc(N[C@H]2C[C@@](C)(O)C2)nn1 [Ex 2, 2-(6-(((cis)-3-Hydroxy-3-methylcyclobutyl)amino)pyridazin-3-yl)-3-methyl-5-(trifluoromethyl)phenol] | 7.99 | < 4.00 |
| Oc1cc(C(F)(F)F)cc(Cl)c1-c1ccc(N[C@H]2C[C@H](O)C2)nn1 [Ex 32, 3-Chloro-2-(6-((trans-3-hydroxycyclobutyl)amino)pyridazin-3-yl)-5-(trifluoromethyl)phenol] | 6.66 | 4.07 |
| Cc1cc(C(F)(F)F)cc(O)c1-c1ccc(N[C@@H]2CCC(=O)NC2)nn1 [Ex 61, (R)-5-((6-(2-Hydroxy-6-methyl-4-(trifluoromethyl)phenyl)pyridazin-3-yl)amino)piperidin-2-one] | 7.18 | < 4.00 |
| Cc1cc(C(F)(F)F)cc(O)c1-c1ccc(N[C@@H]2CCC[C@@H](O)C2)nn1 [Ex 58, 2-(6-(((1R,3R)-3-Hydroxycyclohexyl)amino)pyridazin-3-yl)-3-methyl-5-(trifluoromethyl)phenol] | 7.23 | < 4.00 |
| Cc1cc(-c2c(C)cc(C(F)(F)F)cc2O)nnc1N[C@H]1C[C@@](C)(O)C1 [Ex 54, 2-(6-(((cis)-3-Hydroxy-3-methylcyclobutyl)amino)-5-methylpyridazin-3-yl)-3-methyl-5-(trifluoromethyl)phenol] | 7.93 | 4.46 |
| Cc1cc(-c2c(C)cc(C(F)(F)F)cc2O)nnc1N[C@@H]1CCCN(C)C1=O [Ex 102, (R)-3-((6-(2-Hydroxy-6-methyl-4-(trifluoromethyl)phenyl)-4-methylpyridazin-3-yl)amino)-1-methylpiperidin-2-one] | 7.31 |  |
| Cc1cc(C(F)(F)F)cc(O)c1-c1nnc(N[C@@H]2CCCN(C)C2)c(C)c1C [Ex 40, 2-(4,5-Dimethyl-6-(((R)-1-methylpiperidin-3-yl)amino)pyridazin-3-yl)-3-methyl-5-(trifluoromethyl)phenol TFA-salt] |  | < 4.48 |
| Cc1cc(C(F)(F)F)cc(O)c1-c1ccc(N[C@H]2CCCN[C@H]2C)nn1 [Ex 91a, 3-Methyl-2-(6-(((2S,3S)-2-methylpiperidin-3-yl)amino)pyridazin-3-yl)-5-(trifluoromethyl)phenol] |  | < 4.00 |
| Cc1cc(C(F)(F)F)cc(O)c1-c1cc(C(F)(F)F)c(N[C@@H]2CCCN(C)C2)nn1 [Ex 64, (R)-3-Methyl-2-(6-((1-methylpiperidin-3-yl)amino)-5-(trifluoromethyl)pyridazin-3-yl)-5-(trifluoromethyl)phenol] |  | < 4.00 |
| Cc1cc(C(F)(F)F)cc(O)c1-c1ccc(O[C@@H]2CCCN(C)C2)nn1 [Ex 42, (R)-3-Methyl-2-(6-((1-methylpiperidin-3-yl)oxy)pyridazin-3-yl)-5-(trifluoromethyl)phenol] |  | < 4.00 |
| Cc1cc(C(F)(F)F)cc(O)c1-c1ccc(N[C@H]2CC[C@H]3CC[C@@H]2N3C)nn1 (single isomer, unassigned) [Ex 85a] |  | < 4.00 |
